Read-outs that look alike come from different tables or passages of the source.
How the values were obtained:
Format in all cases: cell-based, human
[1] = test system: MDA-6 (WAF1/CIP1/SDI1) protein; assay: Immunoprecipitation of MDA-6 (WAF1/CIP1/SDI1) protein in HL-60 cells; details: TPA, DMSO (1%) or RA (1 μM), 12, 24, 48 and 72 h tested
Experimental: Immunoprecipitation analyses were performed as described previously (Duigou et al., 1991; Su et al. 1993). Logarithmically growing HL-60 cells were either untreated or treated for 12, 24, 48 or 72 h with TPA ([…]), RA (1 μM) or DMSO (1%) in 10-cm plates. Cultures were starved of methionine for 1 h at 37° C. in methionine-free medium, cells were concentrated by pelleting and labeled for 4 h at 37° C. in 1 ml of the same medium with 100 μCi of [^35S] (NEN; Express ^35S). After labeling, the cells were washed twice with ice-cold phosphate-buffered saline and lysed for 1 h on ice by the addition of RIPC (20 mM Tris-base, pH 7.5, 500 mM NaCl, 0.05% Nonidet P-40, 100 μg/ml phenylmethylsulfonyl fluoride and 0.02% sodium azide). The lysate was clarified by centrifugation in an Eppendorf microfuge at 10,000×g for 10 min at 4° C. Samples containing 4×10^6 counts were incubated with 2 μg of WAF1/CIP1 (C-19) (Santa Cruz Biotechnology) (or MDA-6 peptide-derived) rabbit polyclonal IgG or actin monoclonal antibody (Oncogene Sciences) with rocking at 4° C. for 24 h. The next day, 30 μl (packed volume) of protein G-agarose (Oncogene Sciences) was added to each tube, and incubation with rocking at 4° C. continued for another hour. The protein G pellets were then washed five times with 1 ml of ice-cold RIPC:phosphate-buffered saline (1:1, v/v). Thirty μl of sodium dodecyl sulfate-polyacrylamide gel electrophoresis buffer were added to the pellets, and the sample was heated at 87° C. for 3 min. The samples were loaded onto an 10% polyacrylamide gel and run overnight at 40 V. The gel contained Rainbow protein markers (Amersham) for sizing. Gels were fixed with 10% acetic acid plus 10% methanol for 30 min, incubated in DMSO for 30 min, incubated with 10% 2,5-diphenyloxazole in DMSO for 30 min, washed three times with cold water (10 min each), dried and exposed to film.

mda-6 (WAF1/CIP1/SDI1) [2] = details: HL-525
Experimental: (§1) HL-60 cells were originally provided by Dr. R. C. Gallo (National Cancer Institute, Bethesda, Md.) (Collins et al., 1978; Huberman & Callaham, 1979). HL-60 cells designated HL-525 were derived by cloning HL-60 cells after subculturing 102 times in the presence of increasing concentrations (up to 3 μM) of TPA at 5- to 8-day intervals (Homma et al., 1986; Mitchell et al., 1986). […] Prior to the experiments described in this study, the HL-525 cells were subcultured more than 20 times in the absence of TPA. Cells were grown in 100-mm tissue culture dishes in RPMI 1640 medium supplemented with 20% fetal bovine serum, penicillin (100 units/ml) and streptomycin (100 μg/ml) (Grand Island Biological Co., NY) at 37° C. in an atmosphere of 5% CO2 in air in a humidified incubator. The 1,25-(OH)2D3(Vit D3) and TPA were dissolved in a final concentration of 0.01% DMSO, and all-trans retinoic acid (RA) was dissolved in 0.1% DMSO in culture medium. […] Control cultures were treated with DMSO at a final concentration of 0.1% in culture medium. For experiments designed to test the effect of DMSO on HL-60 and HL-525 cells, DMSO was added to tissue culture medium at a final concentration of 1%. Stock solutions of CHX (10 mg/ml) were prepared in culture medium. CHX was added at a final concentration of 10 μg/ml. To examine a requirement for protein synthesis on mda-6 gene expression, HL-60 or HL-525 cells were seeded into 150 mm Petri dishes (5×10^5 cells/ml) in 30 ml of medium. CHX was added to a final concentration of 10 μg/ml 15 min prior to the addition of TPA to 3 nM. Cells were harvested at various times after addition of TPA for subsequent RNA isolation and analysis.
RNA was purified by centrifugation through a CsC1 cushion as described by Chirgwin et al. (1979). Ten μg of RNA was denatured with glyoxal/DMSO, electrophoresed on 1.0% agarose gels, transferred to nylon membranes, hybridized to a ^32P-labeled mda-6 probe (Jiang and Fisher, 1993) and then after stripping the membrane hybridized to a ^32P-labeled rat GAPDH probe (Fort et al., 1985), as described previously (Reddy et at., 1991; Su et al., 1991; Jiang et al., 1992). Following hybridization, the filters were washed and exposed for autoradiography (Reddy et al., 1991; Su et al., 1991; Jiang et al., 1992). mda-6 and GAPDH gene expression were also determined by reverse transcription-polymerase chain reaction (RT-PCR) as described (Adollahi et al. 1991; Lin et al., 1994). Total cytoplasmic RNA was treated with 0.5 units DNase (Boehringer-Mannheim Biochemicals)/μg RNA in 15% glycerol, 10 mM Tris, pH 7.5, 2.5 mM MgCl2, 0.1 mM EDTA, 80 mM KC1, 1 mM CaCl2 and 1 unit/ml RNasin (Promega) at 30° C. for 10 min. RNA was extracted with phenol-chloroform, precipitated with sodium acetate/ethanol and RNA pellets were resuspended in diethylpyrocarbonate-treated H2O. One μg of total RNA was reverse transcribed with 200 units of murine leukemia virus reverse transcriptase (Bethesda Research Laboratories) in 20 μl containing 1 mM deoxyribonucleotide triphosphates, 4 mM MgCl2, 10 mM Tris, pH 8.3, 50 mM KC1, 0.001% gelatin and 0.2 μg oligo-dT primer. Samples were diluted to 100 μl with buffer containing 0.2 mM deoxyribonucleotide triphosphates, 2 mM MgCl2, 10 mM Tris, pH 8.3, 50 mM KC1 and 0.001% gelatin. […]

HL-60 cells = assay: OKM1 reactivity (immunofluorescence); details: TPA 3 nM, RA 1 μM or Vit D3 400 nM, percent OKM1 positive cells
Experimental: as §1
(§2) Cell counts were determined by hemocytometer chamber counting. Immunofluorescence tests for reactivity with the OKM1 antibody (Ortho Pharmaceutical Corp., Raritan, N.J.) were performed as previously described (Murao et al., 1983).

HL-525 cells = assay: OKM1 reactivity (immunofluorescence); details: TPA 3 nM, RA 1 μM or Vit D3 400 nM, percent OKM1 positive cells
Experimental: as §1, §2

mda-6 (WAF1/CIP1/SDI1) [3] = assay: Induction of mda-6 (WAF1/CIP1/SDI1) expression in HL-60 cells (Northern blotting, RT-PCR); details: CHX 10 μg/ml 1, 3, 6 or 10 h, without or with TPA 3 nM
Experimental: HL-60 cells were originally provided by Dr. R. C. Gallo (National Cancer Institute, Bethesda, Md.) (Collins et al., 1978; Huberman & Callaham, 1979). HL-60 cells designated HL-525 were derived by cloning HL-60 cells after subculturing 102 times in the presence of increasing concentrations (up to 3 μM) of TPA at 5- to 8-day intervals (Homma et al., 1986; Mitchell et al., 1986). […] Prior to the experiments described in this study, the HL-525 cells were subcultured more than 20 times in the absence of TPA. Cells were grown in 100-mm tissue culture dishes in RPMI 1640 medium supplemented with 20% fetal bovine serum, penicillin (100 units/ml) and streptomycin (100 μg/ml) (Grand Island Biological Co., NY) at 37° C. in an atmosphere of 5% CO2 in air in a humidified incubator. The 1,25-(OH)2D3(Vit D3) and TPA were dissolved in a final concentration of 0.01% DMSO, and all-trans retinoic acid (RA) was dissolved in 0.1% DMSO in culture medium. […]
RNA was purified by centrifugation through a CsC1 cushion as described by Chirgwin et al. (1979). […] Following hybridization, the filters were washed and exposed for autoradiography (Reddy et al., 1991; Su et al., 1991; Jiang et al., 1992). mda-6 and GAPDH gene expression were also determined by reverse transcription-polymerase chain reaction (RT-PCR) as described (Adollahi et al. 1991; Lin et al., 1994). […]

C[S+](C)[O-] [DMSO, dimethyl sulfoxide]
time of treatment at which MDA-6 protein is detected [1]: 48 h

C=C1/C(=C\C=C2/CCC[C@]3(C)[C@@H]([C@H](C)CCCC(C)(C)O)CC[C@@H]23)C[C@@H](O)C[C@@H]1O [Vit D3, 1,25-(OH)2D3]
time of treatment at which mda-6 expression is induced (mda-6 (WAF1/CIP1/SDI1) [2]; TPA 3 nM, Vit D3 400 nM, RA 1 μM, 1 to 12 h test period): ≤ 2 h | OKM1 reactivity, Days of induction 4 (HL-60 cells): 88% | OKM1 reactivity, Days of induction 6 (HL-60 cells): 95% | OKM1 reactivity, Days of induction 4 (HL-525 cells): 84% | OKM1 reactivity, Days of induction 6 (HL-525 cells): 80%

C[C@@H]1C[C@@H]([C@H](O)CC2CC(=O)NC(=O)C2)C(=O)[C@@H](C)C1 [CHX, cycloheximide]
mda-6 expression in the presence of cycloheximide (mda-6 (WAF1/CIP1/SDI1) [3]): induction of mda-6 | mda-6 expression in the presence of cycloheximide (mda-6 (WAF1/CIP1/SDI1) [2]; CHX 10 μg/ml 1, 3, 6 or 10 h, without or with TPA 3 nM): induces mda-6 expression

— patent US7507792B2, “MDA-7 proteins and methods of use thereof” (The Trustees of Columbia University In The City of New York, priority 1993, dated 2009)
